Measured values: patent US10709709B2, “Substituted carbonucleoside derivatives useful as anticancer agents” (Pfizer Inc., priority 2016, dated 2020)

molecular target: PRMT5/MEP50 protein complex (Homo sapiens (Human), UniProt O14744); assay: PRMT5 biochemical assay (3H-SAM methylation of H4(1-21) peptide, filter plate scintillation); conditions: 10 nM PRMT5/MEP50 complex, 200 nM H4(1-21) peptide, 1 uM SAM, 25 minute incubation at room temperature
Experimental: Biochemical Assay Methods
Compounds were solubilized in DMSO and serially diluted, using 3-fold dilutions, into 100% DMSO at a concentration 50-fold greater than the desired assay concentration. Following dilution, 1 ul was added to an empty 96-well microtiter plate. PRMT5/MEP50 protein complex was combined with H4(1-21) peptide ([…]) in PRMT5 assay buffer (50 mM Tris pH 8.5, 50 mM NaCl, 5 mM MgCl2, 1 mM EDTA, 1 mM TCEP) and 44 ul was added to the microtiter plate containing compound. S-Adenosyl-L-methionine (SAM) was prepared by combining ^3H labelled SAM with unlabelled SAM in PRMT5 assay buffer such that the final SAM concentration was 10 uM and the specific activity was 0.2 uCi/ul. The reaction was initiated by adding 5 ul of SAM stock to the microtiter plate. The final reaction conditions were 10 nM PRMT5/MEP50 complex, 200 nM peptide and 1 uM SAM. Following a 25 minute incubation at room temperature, the reaction was stopped with the addition of 100 uL of 20% TCA. The 3H-peptide product was captured using a 96-well filter plate (MSIPN4B, Millipore) and washed 5 times with PBS buffer. Scintillation fluid (100 ul) was added to the dried filter plate and counted in a liquid scintillation counter. IC50 values were determined by fitting the data to the standard 4-parameter dose response equation using Pfizer proprietary software.
Results for the biochemical assay of examples are summarized in Table 1, shown as IC50 values in μM.

Sequence of PRMT5/MEP50 protein complex (O14744 other isoform, or with tags, fused parts or gaps): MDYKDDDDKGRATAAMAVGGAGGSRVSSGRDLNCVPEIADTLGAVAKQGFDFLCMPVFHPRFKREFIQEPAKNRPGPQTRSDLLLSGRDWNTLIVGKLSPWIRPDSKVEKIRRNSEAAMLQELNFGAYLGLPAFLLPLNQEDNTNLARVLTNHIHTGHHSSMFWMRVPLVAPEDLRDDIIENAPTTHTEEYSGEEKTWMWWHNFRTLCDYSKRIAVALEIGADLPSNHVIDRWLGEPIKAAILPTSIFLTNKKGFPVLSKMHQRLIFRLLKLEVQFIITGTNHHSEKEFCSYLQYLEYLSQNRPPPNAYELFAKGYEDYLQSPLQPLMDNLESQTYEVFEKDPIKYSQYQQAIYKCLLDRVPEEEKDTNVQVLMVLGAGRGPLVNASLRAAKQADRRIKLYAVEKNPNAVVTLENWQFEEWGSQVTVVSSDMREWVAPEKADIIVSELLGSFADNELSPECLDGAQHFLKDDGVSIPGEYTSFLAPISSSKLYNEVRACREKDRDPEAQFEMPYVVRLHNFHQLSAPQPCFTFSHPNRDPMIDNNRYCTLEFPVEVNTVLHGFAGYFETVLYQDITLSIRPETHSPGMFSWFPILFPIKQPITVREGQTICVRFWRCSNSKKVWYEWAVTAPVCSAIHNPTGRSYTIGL
Sequence of PRMT5/MEP50 protein complex (Q9BQA1 whole entry partner): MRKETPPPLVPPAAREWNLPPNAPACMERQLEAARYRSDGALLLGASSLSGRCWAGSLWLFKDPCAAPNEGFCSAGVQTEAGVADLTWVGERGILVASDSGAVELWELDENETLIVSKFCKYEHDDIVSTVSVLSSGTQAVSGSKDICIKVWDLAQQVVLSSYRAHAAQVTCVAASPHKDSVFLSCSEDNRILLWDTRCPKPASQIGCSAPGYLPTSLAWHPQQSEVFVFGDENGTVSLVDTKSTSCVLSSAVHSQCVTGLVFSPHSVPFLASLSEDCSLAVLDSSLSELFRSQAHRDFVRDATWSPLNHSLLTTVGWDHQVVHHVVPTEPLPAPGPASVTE

| SMILES | IC50 [nM] |
| --- | --- |
| Cc1ncnc2c1ccn2[C@@H]1C[C@H]([C@H](CN)c2ccc(F)cc2)[C@@H](O)[C@H]1O [Example 51, (1S,2R,3R,5R)-3-[(1S)-2-amino-1-(4-fluorophenyl)ethyl]-5-(4-methyl-7H-pyrrolo[2,3-d]pyrimidin-7-yl)cyclopentane-1,2-diol] | 676 |
| Cc1ncnc2c1ccn2[C@@H]1C[C@H](Oc2cccc3c2CN(C)C3)[C@@H](O)[C@H]1O [Example 82, (1S,2S,3S,5R)-3-[(2-methyl-2,3-dihydro-1H-isoindol-4-yl)oxy]-5-(4-methyl-7H-pyrrolo[2,3-d]pyrimidin-7-yl)cyclopentane-1,2-diol] | 991 |
| Cc1ncnc2c1ccn2[C@@H]1C[C@H](Oc2ccc(Cl)cc2OCCN)[C@@H](O)[C@H]1O [Example 153, (1S,2S,3S,5R)-3-(2-(2-aminoethoxy)-4-chlorophenoxy)-5-(4-methyl-7H-pyrrolo[2,3-d]pyrimidin-7-yl)cyclopentane-1,2-diol] | 5 |
| Cc1ncnc2c1ccn2[C@@H]1C[C@H](Oc2cccc3c2[C@H](N)CC3)[C@@H](O)[C@H]1O [Example 142, (1S,2S,3S,5R)-3-(((R)-3-amino-2,3-dihydro-1H-inden-4-yl)oxy)-5-(4-methyl-7H-pyrrolo[2,3-d]pyrimidin-7-yl)cyclopentane-1,2-diol] | 11 |
| Cc1cc(O[C@H]2C[C@@H](n3ccc4c(C)ncnc43)[C@H](O)[C@@H]2O)c2c(c1F)CCNC2 [Example 155, (1S,2S,3S,5R)-3-((5-fluoro-6-methyl-1,2,3,4-tetrahydroisoquinolin-8-yl)oxy)-5-(4-methyl-7H-pyrrolo[2,3-d]pyrimidin-7-yl)cyclopentane-1,2-diol] | 2 |
| Cc1ncnc2c1ccn2[C@@H]1C[C@H](Oc2cc(Cl)c(Cl)cc2OCCN)[C@@H](O)[C@H]1O [Example 151, (1S,2S,3S,5R)-3-(2-(2-aminoethoxy)-4,5-dichlorophenoxy)-5-(4-methyl-7H-pyrrolo[2,3-d]pyrimidin-7-yl)cyclopentane-1,2-diol] | 78 |
| Cc1ncnc2c1ccn2[C@@H]1C[C@H]([C@@H](O)c2ccc(Cl)cc2CN)[C@@H](O)[C@H]1O [Example 54, (1S,2R,3R,5R)-3-((R)-(2-(aminomethyl)-4-chlorophenyl)(hydroxy)methyl)-5-(4-methyl-7H-pyrrolo[2,3-d]pyrimidin-7-yl)cyclopentane-1,2-diol] | 126 |
| Cc1ncnc(N(C)[C@@H]2C[C@H]([C@@H](O)c3ccc(F)c(F)c3)[C@@H](O)[C@H]2O)n1 [Example 47, (1S,2R,3R,5R)-3-[(R)-(3,4-difluorophenyl)(hydroxy)methyl]-5-[methyl(4-methyl-1,3,5-triazin-2-yl)amino]cyclopentane-1,2-diol] | 29500 |
| Cc1nc(N)nc2c1ccn2[C@@H]1C[C@H]([C@@H](O)c2ccc(F)c(F)c2)[C@@H](O)[C@H]1O [Example 49, (1R,2S,3R,5R)-3-(2-amino-4-methyl-7H-pyrrolo[2,3-d]pyrimidin-7-yl)-5-[(R)-(3,4-difluorophenyl)(hydroxy)methyl]cyclopentane-1,2-diol] | 105 |
| Cc1ncnc2c1ccn2[C@@H]1C[C@H](Oc2ccc(Cl)c(Cl)c2CN)[C@@H](O)[C@H]1O [Example 150, (1S,2S,3S,5R)-3-(2-(aminomethyl)-3,4-dichlorophenoxy)-5-(4-methyl-7H-pyrrolo[2,3-d]pyrimidin-7-yl)cyclopentane-1,2-diol] | 71 |
| Nc1ncnc2c1c(F)cn2[C@@H]1C[C@H]([C@@H](O)c2ccc(F)cc2)[C@@H](O)[C@H]1O [Example 26, (1R,2S,3R,5R)-3-(4-amino-5-fluoro-7H-pyrrolo[2,3-d]pyrimidin-7-yl)-5-[(R)-(4-fluorophenyl)(hydroxy)methyl]cyclopentane-1,2-diol] | 704 |
| CN(c1ccnc(N)n1)[C@@H]1C[C@H]([C@H](O)c2ccc(F)c(F)c2)[C@@H](O)[C@H]1O [Example 39, (1R,2S,3R,5R)-3-[(2-aminopyrimidin-4-yl)(methyl)amino]-5-[(S)-(3,4-difluorophenyl)(hydroxy)methyl] cyclopentane-1,2-diol] | 114 |
| Cc1cc(F)ccc1O[C@H]1C[C@@H](n2ccc3c(C)ncnc32)[C@H](O)[C@@H]1O [Example 75, (1S,2S,3S,5R)-3-(4-fluoro-2-methylphenoxy)-5-(4-methyl-7H-pyrrolo[2,3-d]pyrimidin-7-yl)cyclopentane-1,2-diol] | 37800 |
| Cc1nccc(N(C)[C@@H]2C[C@H]([C@H](O)c3ccc(F)c(F)c3)[C@@H](O)[C@H]2O)n1 [Example 35, (1S,2R,3R,5R)-3-[(S)-(3,4-difluorophenyl)(hydroxy)methyl]-5-[methyl(2-methylpyrimidin-4-yl)amino] cyclopentane-1,2-diol] | 150 |
| Cc1ncnc2c1ccn2[C@@H]1C[C@H](Cc2ccc(F)cc2)[C@@H](O)[C@H]1O [Example 58, (1S,2R,3S,5R)-3-(4-fluorobenzyl)-5-(4-methyl-7H-pyrrolo[2,3-d]pyrimidin-7-yl)cyclopentane-1,2-diol] | 289 |
| Nc1ncnc2c1ccn2[C@@H]1C[C@H]([C@H](O)c2ccc(Cl)c(F)c2)[C@@H](O)[C@H]1O [Example 23, (1R,2S,3R,5R)-3-(4-amino-7H-pyrrolo[2,3-d]pyrimidin-7-yl)-5-((S)-(4-chloro-3-fluorophenyl)(hydroxy)methyl)cyclopentane-1,2-diol] | 572 |
| CO[C@H]1C[C@@H](n2ccc3c(C)ncnc32)[C@H](O)[C@@H]1O [Example 60, (1S,2S,3S,5R)-3-methoxy-5-(4-methyl-7H-pyrrolo[2,3-d]pyrimidin-7-yl)cyclopentane-1,2-diol] | > 200000 |
| Cc1ncnc2c1ccn2[C@@H]1C[C@H]([C@H](O)c2ccc(F)cc2)[C@@H](O)[C@H]1O [Example 9, (1S,2R,3R,5R)-3-[(S)-(4-fluorophenyl) (hydroxy)methyl]-5-(4-methyl-7H-pyrrolo[2,3-d]pyrimidin-7-yl)cyclopentane-1,2-diol] | 60 |
| Cc1ncnc2c1ccn2[C@@H]1C[C@H]([C@@H](O)c2ccc(Cl)c(F)c2)[C@@H](O)[C@H]1O [Example 161, (1S,2R,3R,5R)-3-((R)-(4-chloro-3-fluorophenyl)(hydroxy)methyl)-5-(4-methyl-7H-pyrrolo[2,3-d]pyrimidin-7-yl)cyclopentane-1,2-diol] | 201 |
| Cc1ncnc2c1ccn2[C@@H]1C[C@H]([C@H](O)c2cccc(Cl)c2)[C@@H](O)[C@H]1O [Example 7] | 120 |
| Cc1cc(O[C@H]2C[C@@H](n3cc(F)c4c(N)ncnc43)[C@H](O)[C@@H]2O)c2c(c1F)CCNC2 [Example 113, (1S,2S,3R,5S)-3-(4-amino-5-fluoro-7H-pyrrolo[2,3-d]pyrimidin-7-yl)-5-((5-fluoro-6-methyl-1,2,3,4-tetahydroisoquinolin-8-yl)oxy)cyclopentane-1,2-diol] | 1 |
| CNCc1cc(F)ccc1O[C@H]1C[C@@H](n2ccc3c(C)ncnc32)[C@H](O)[C@@H]1O [Example 72, (1S,2S,3S,5R)-3-(4-fluoro-2-((methylamino)methyl)phenoxy)-5-(4-methyl-7H-pyrrolo[2,3-d]pyrimidin-7-yl)cyclopentane-1,2-diol] | 22 |
| CN(c1ncnc(N)n1)[C@@H]1C[C@H]([C@H](O)c2ccc(F)c(F)c2)[C@@H](O)[C@H]1O [Example 37, (1R,2S,3R,5R)-3-[(4-amino-1,3,5-triazin-2-yl)(methyl)amino]-5-[(S)-(3,4-difluorophenyl) (hydroxy)methyl]cyclopentane-1,2-diol] | 266 |
| Cc1ncnc2c1ccn2[C@@H]1C[C@H](Oc2ccccc2C#N)[C@@H](O)[C@H]1O [Example 64, 2-(((1S,2S,3S,4R)-2,3-dihydroxy-4-(4-methyl-7H-pyrrolo[2,3-d]pyrimidin-7-yl)cyclopentyl)oxy)benzonitrile] | > 200000 |
| Cc1ncnc2c1ccn2[C@@H]1C[C@H](Oc2ccc(F)cc2)[C@@H](O)[C@H]1O [Example 73, (1S,2S,3S,5R)-3-(4-fluorophenoxy)-5-(4-methyl-7H-pyrrolo[2,3-d]pyrimidin-7-yl)cyclopentane-1,2-diol] | 6880 |
| Cc1ncnc2c1ccn2[C@@H]1C[C@H](Oc2ccc(F)cc2C#N)[C@@H](O)[C@H]1O [Example 68, 2-(((1S,2S,3S,4R)-2,3-dihydroxy-4-(4-methyl-7H-pyrrolo[2,3-d]pyrimidin-7-yl)cyclopentyl)oxy)-5-fluorobenzonitrile] | > 200000 |
| Cc1nccc(N(C)[C@@H]2C[C@H]([C@@H](O)c3ccc(F)c(F)c3)[C@@H](O)[C@H]2O)n1 [Example 36, (1S,2R,3R,5R)-3-[(R)-(3,4-difluorophenyl)(hydroxy)methyl]-5-[methyl(2-methylpyrimidin-4-yl)amino] cyclopentane-1,2-diol] | 2700 |
| Cc1cc(N(C)[C@@H]2C[C@H]([C@@H](O)c3ccc(F)c(F)c3)[C@@H](O)[C@H]2O)ncn1 [Example 34, (1S,2R,3R,5R)-3-[(R)-(3,4-difluorophenyl)(hydroxy)methyl]-5-[methyl(6-methylpyrimidin-4-yl)amino] cyclopentane-1,2-diol] | 59500 |
| Cc1ncnc2c1ccn2[C@@H]1C[C@H](C(F)c2ccc(F)cc2)[C@@H](O)[C@H]1O (single isomer, unassigned) [Example 21] | 217 |
